According to article PMC12698182, “Bardoxolone methyl blocks the efflux of Zn^2+ by targeting hZnT1 to inhibit the proliferation and metastasis of cervical cancer” (Protein & Cell, 2025):
Where a chain is given by its changes, count along the chain named.

Experiments:
hZnT1 [1] = target: T1, hZnT1 (Homo sapiens, UniProt Q9Y6M5, G258A); assay: biolayer interferometry (BLI); format: binding
T1 construct: gene SLC30A1; homodimer (ECD 271-312, CTD 345-507 visible); tags and borders only in supplement; transport assay in HEK-293F cells
T1 sequence (Q9Y6M5 1-507 G258A): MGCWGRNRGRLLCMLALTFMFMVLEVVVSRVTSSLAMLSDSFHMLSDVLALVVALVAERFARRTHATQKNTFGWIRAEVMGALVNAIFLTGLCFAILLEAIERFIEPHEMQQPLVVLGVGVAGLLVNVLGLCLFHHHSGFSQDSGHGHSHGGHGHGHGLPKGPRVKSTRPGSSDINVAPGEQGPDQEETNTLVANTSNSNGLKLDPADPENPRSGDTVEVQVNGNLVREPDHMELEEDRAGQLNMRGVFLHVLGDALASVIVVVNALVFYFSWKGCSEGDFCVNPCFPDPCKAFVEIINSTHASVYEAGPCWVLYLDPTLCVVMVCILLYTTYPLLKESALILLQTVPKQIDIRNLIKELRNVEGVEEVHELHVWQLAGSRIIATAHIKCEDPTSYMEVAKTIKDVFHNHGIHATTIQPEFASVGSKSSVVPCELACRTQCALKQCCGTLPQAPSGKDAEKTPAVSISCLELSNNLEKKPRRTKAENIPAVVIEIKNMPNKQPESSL

hZnT1 [2] = target: T2, hZnT1 (Homo sapiens, UniProt Q9Y6M5, I96A); assay: biolayer interferometry (BLI); conditions: read-out: binding affinity
T2 construct: gene SLC30A1; homodimer (ECD 271-312, CTD 345-507 visible); tags and borders only in supplement; transport assay in HEK-293F cells
T2 sequence (Q9Y6M5 1-507 I96A): T1 sequence (Q9Y6M5 1-507 G258A) with I96A, A258G

hZnT1 [3] = target: T3, hZnT1 (Homo sapiens, UniProt Q9Y6M5); assay: FluoZin-3 fluorescence Zn2+ transport assay in HEK-293F cells; format: cell-based
T3 construct: gene SLC30A1; homodimer (ECD 271-312, CTD 345-507 visible); tags and borders only in supplement; transport assay in HEK-293F cells
T3 sequence (Q9Y6M5 1-507): T1 sequence (Q9Y6M5 1-507 G258A) with A258G

hZnT1 [4] = target: T3, hZnT1; assay: biolayer interferometry (BLI); conditions: read-out: binding affinity

Kd (hZnT1 [2]): 58.4 µM
IC50 (hZnT1 [3]): 18 ± 0.92 µM
Kd (hZnT1 [4]): 2.72 µM
Compound: COC(=O)[C@]12CCC(C)(C)C[C@H]1[C@H]1C(=O)C=C3[C@@]4(C)C=C(C#N)C(=O)C(C)(C)[C@@H]4CC[C@@]3(C)[C@]1(C)CC2 [Bardoxolone methyl]
binding affinity (hZnT1 [1]): the mutation of G258A directly led to the affinity to be completely undetectable
